Measurements reported in PubChem BioAssay (NCI).
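All cell lines were grown in 96-well plates and treated with compound for 48 hours. At the TGI there is no net growth.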

Experiments:
Test in all cases: DTP human tumour cell line panel, 48 h
EKVX NSCLC = test system: EKVX NSCLC
SR leukemia = test system: SR leukemia
COLO 205 colon = test system: COLO 205 colon
MOLT-4 leukemia = test system: MOLT-4 leukemia
SK-OV-3 ovarian = test system: SK-OV-3 ovarian
HOP-92 NSCLC = test system: HOP-92 NSCLC
RXF 393 renal = test system: RXF 393 renal
OVCAR-5 ovarian = test system: OVCAR-5 ovarian
BT-549 breast = test system: BT-549 breast
SK-MEL-5 melanoma = test system: SK-MEL-5 melanoma
LOX IMVI melanoma = test system: LOX IMVI melanoma
SK-MEL-28 melanoma = test system: SK-MEL-28 melanoma
OVCAR-8 ovarian = test system: OVCAR-8 ovarian
NCI-H522 lung = test system: NCI-H522 lung
PC-3 prostate = test system: PC-3 prostate
UACC-257 melanoma = test system: UACC-257 melanoma
SF-268 CNS = test system: SF-268 CNS
SF-539 CNS = test system: SF-539 CNS
HL-60(TB) leukemia = test system: HL-60(TB) leukemia
UACC-62 melanoma = test system: UACC-62 melanoma
SN12C renal = test system: SN12C renal
NCI-H460 lung = test system: NCI-H460 lung
A498 renal = test system: A498 renal
OVCAR-3 ovarian = test system: OVCAR-3 ovarian
SF-295 CNS = test system: SF-295 CNS
MALME-3M melanoma = test system: MALME-3M melanoma
RPMI-8226 leukemia = test system: RPMI-8226 leukemia
K-562 leukemia = test system: K-562 leukemia
HCC-2998 colon = test system: HCC-2998 colon
NCI-H23 lung = test system: NCI-H23 lung
MDA-MB-231 breast = test system: MDA-MB-231 breast
CAKI-1 renal = test system: CAKI-1 renal
U251 CNS = test system: U251 CNS
TK-10 renal = test system: TK-10 renal
NCI-H226 lung = test system: NCI-H226 lung
HCT-15 colon = test system: HCT-15 colon
MCF7 breast = test system: MCF7 breast
MDA-MB-435 = test system: MDA-MB-435
NCI/ADR-RES ovarian = test system: NCI/ADR-RES ovarian
DU-145 prostate = test system: DU-145 prostate
UO-31 renal = test system: UO-31 renal
IGROV1 ovarian = test system: IGROV1 ovarian
MDA-N = test system: MDA-N
HOP-62 NSCLC = test system: HOP-62 NSCLC
HS 578T breast = test system: HS 578T breast
OVCAR-4 ovarian = test system: OVCAR-4 ovarian
T-47D breast = test system: T-47D breast
A549 NSCLC = test system: A549 NSCLC
ACHN renal = test system: ACHN renal
CCRF-CEM leukemia = test system: CCRF-CEM leukemia
HCT-116 colon = test system: HCT-116 colon
SW-620 colon = test system: SW-620 colon
786-0 renal = test system: 786-0 renal
KM12 colon = test system: KM12 colon
SNB-75 CNS = test system: SNB-75 CNS
HT29 colon = test system: HT29 colon

Compound: COc1cc(CNc2nc3ccccc3nc2-c2cccs2)cc(OC)c1OC
- TGI (EKVX NSCLC): > 100 µM
- TGI (SR leukemia): > 100 µM
- TGI (COLO 205 colon): > 100 µM
- TGI (MOLT-4 leukemia): 29.6 µM
- TGI (SK-OV-3 ovarian): > 100 µM
- TGI (HOP-92 NSCLC): 10.1 µM
- TGI (RXF 393 renal): > 100 µM
- TGI (OVCAR-5 ovarian): > 100 µM
- TGI (BT-549 breast): 12.9 µM
- TGI (SK-MEL-5 melanoma): 28.8 µM
- TGI (LOX IMVI melanoma): 42.6 µM
- TGI (SK-MEL-28 melanoma): > 100 µM
- TGI (OVCAR-8 ovarian): > 100 µM
- TGI (NCI-H522 lung): 38.7 µM
- TGI (PC-3 prostate): 39.4 µM
- TGI (UACC-257 melanoma): > 100 µM
- TGI (SF-268 CNS): > 100 µM
- TGI (SF-539 CNS): > 100 µM
- TGI (HL-60(TB) leukemia): > 100 µM
- TGI (UACC-62 melanoma): 62.5 µM
- TGI (SN12C renal): 37.8 µM
- TGI (NCI-H460 lung): 37.5 µM
- TGI (A498 renal): > 100 µM
- TGI (OVCAR-3 ovarian): > 100 µM
- TGI (SF-295 CNS): > 100 µM
- TGI (MALME-3M melanoma): 79.3 µM
- TGI (RPMI-8226 leukemia): 53.4 µM
- TGI (K-562 leukemia): 97.7 µM
- TGI (HCC-2998 colon): > 100 µM
- TGI (NCI-H23 lung): 65.5 µM
- TGI (MDA-MB-231 breast): > 100 µM
- TGI (CAKI-1 renal): 28.4 µM
- TGI (U251 CNS): > 100 µM
- TGI (TK-10 renal): > 100 µM
- TGI (NCI-H226 lung): 97.7 µM
- TGI (HCT-15 colon): > 100 µM
- TGI (MCF7 breast): > 100 µM
- TGI (MDA-MB-435): > 100 µM
- TGI (NCI/ADR-RES ovarian): 51.2 µM
- TGI (DU-145 prostate): > 100 µM
- TGI (UO-31 renal): 25 µM
- TGI (IGROV1 ovarian): > 100 µM
- TGI (MDA-N): 95.8 µM
- TGI (HOP-62 NSCLC): > 100 µM
- TGI (HS 578T breast): 74.8 µM
- TGI (OVCAR-4 ovarian): 23.4 µM
- TGI (T-47D breast): > 100 µM
- TGI (A549 NSCLC): > 100 µM
- TGI (ACHN renal): 29.3 µM
- TGI (CCRF-CEM leukemia): 52.2 µM
- TGI (HCT-116 colon): > 100 µM
- TGI (SW-620 colon): > 100 µM
- TGI (786-0 renal): > 100 µM
- TGI (KM12 colon): > 100 µM
- TGI (SNB-75 CNS): > 100 µM
- TGI (HT29 colon): > 100 µM
